Experimental data as given in US4877785A, “Non-peptidyl beta-succinamidoacyl aminodiols as anti-hypertensive agents” (G. D. Searle & Co., priority 1987, dated 1989).
Where a SMILES comes first, the peptide text is derived from it. [ ]: non-standard residue; d: D form. The star is where a group is joined. Sta = CC(C)C[C@H](N)[C@@H](O)CC(=O)O; Isovaleryl = CC(C)CC(=O)*

Experiments:
[1] = target: T1, Human renin (Homo sapiens, UniProt P00797); test: human renin inhibition test in vitro (angiotensin I determined by radioimmunoassay); format: biochemical; settings: pH 7.4, 37° C., two hours, human plasma
T1 construct: purchased National Institute for Biological Standards, London
T1 sequence (P00797 67-406): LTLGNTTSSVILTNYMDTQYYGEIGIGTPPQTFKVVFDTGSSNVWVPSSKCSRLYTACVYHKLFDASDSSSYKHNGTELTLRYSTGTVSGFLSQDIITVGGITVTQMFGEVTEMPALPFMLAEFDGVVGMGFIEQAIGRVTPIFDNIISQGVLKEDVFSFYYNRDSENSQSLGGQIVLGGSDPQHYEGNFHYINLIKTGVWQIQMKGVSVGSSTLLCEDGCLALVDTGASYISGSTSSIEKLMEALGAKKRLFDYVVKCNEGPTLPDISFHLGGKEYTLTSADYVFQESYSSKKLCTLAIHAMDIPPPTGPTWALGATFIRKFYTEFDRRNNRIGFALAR
Procedure: Compounds of Formula I were evaluated as inhibitors of human renin in an in vitro assay, as follows: This human renin inhibition test has been previously described in detail [Papaioannou, et al., Clinical and Experimental Hypertension, A7(9), 1243-1257 (1985)]. Human renin was obtained from the National Institute for Biological Standards, London. In a total volume of 0.25 mL 100 mM Tris-acetate buffer at pH 7.4, 25×10^-6 Goldblatt units of renin, 0.05 mL of plasma from human volunteers taking oral contraceptives, 6.0 mM sodium EDTA, 2.4 mM phenylmethyl sulfonyl fluoride, 1.5 mM 8-hydroxyquinoline, 0.4 mg/mL BSA, and 0.024 mg/mL neomycin sulfate were incubated for two hours at 37° C. in the presence or absence of renin inhibitors. The produced angiotensin I was determined by radioimmunoassay (New England Nuclear kit). Compounds of formula I to be assayed were solubilized in either ethyl alcohol or DMSO and diluted with 100 mM Tris-acetate buffer at pH 7.4 to the appropriate concentration. The final concentration of organic solvent in the reaction mixture was less than 1%. Control incubations at 37° C. were used to correct for effects of organic solvent on renin activity.

[2] = test system: hog renin; settings: after injection of hog renin into nephrectomized rats; cited from earlier work
[3] = test system: pepsin; settings: cited from earlier work
[4] = test system: cathepsin D; settings: cited from earlier work
[5] = test system: renin; settings: cited from earlier work

Structure (SMILES) | IC50 [1] [nM] | reduction of blood pressure in vivo [2] | inhibition of pepsin [3] | inhibition of cathepsin D [4] | inhibition of renin [5]
CC(C)C[C@H](O)[C@H](O)[C@H](CC1CCCCC1)NC(=O)C(C)CNC(=O)C(CC(=O)N1CCOCC1)Cc1cccc2ccccc12 (single isomer, unassigned; isomer b) [Example 13] | 1000 |  |  |  | 
CC(C)C[C@H](O)[C@H](O)[C@H](CC1CCCCC1)NC(=O)C(C)CNC(=O)C(CC(=O)N1CCOCC1)Cc1cccc2ccccc12 (single isomer, unassigned; isomer a) [Example 11] | 330 |  |  |  | 
CC(C)CC(=O)N[C@H](C(=O)N[C@H](C(=O)N[C@@H](CC(C)C)[C@@H](O)CC(=O)N[C@@H](C)C(=O)N[C@@H](CC(C)C)[C@@H](O)CC(=O)O)C(C)C)C(C)C [pepstatin] (Isovaleryl-VV[Sta]A[Sta]-OH) |  | found to reduce blood pressure in vivo | inhibitor | inhibitor | inhibitor
